Marks after values point to notes of the source that are not given here.
Conditions: pH 2.7

## CCOC(=O)C(C(=O)N1CCC(c2nc(C3=NOC(c4ccccc4OS(C)(=O)=O)C3)cs2)CC1)n1cc(C(F)(F)F)nc1C (stereo not shown) [Example I-12]
  Log P: 2.99^[a]

## CCOC(=O)C(C(=O)N1CCC(c2nc(C3=NOC(c4ccccc4C=O)C3)cs2)CC1)n1nc(C(F)F)cc1C(F)F (stereo not shown) [Example I-14]
  Log P: 3.40^[a]

## C#CCOc1cccc(F)c1C1CC(c2csc(C3CCN(C(=O)C(C(=O)OC(CC)CCCCC)n4nc(C(F)F)cc4C(F)F)CC3)n2)=NO1 (stereo not shown) [Example I-18]
  Log P: 5.22^[a]

## CCCCCC(CC)OC(=O)C(C(=O)N1CCC(c2nc(C3=NOC(c4ccccc4C=O)C3)cs2)CC1)n1nc(C(F)F)cc1C(F)F (stereo not shown) [Example I-21]
  Log P: 5.20^[a]

## CCCCCC(CC)OC(=O)C(C(=O)N1CCC(c2nc(C3=NOC(c4c(F)cccc4OS(C)(=O)=O)C3)cs2)CC1)n1nc(C(F)F)cc1C(F)F (stereo not shown) [Example I-22]
  Log P: 4.04^[a]

## C#CCOc1cccc(F)c1C1CC(c2csc(C3CCN(C(=O)C(Br)C(=O)OCCOC)CC3)n2)=NO1 (stereo not shown) [Example I-24]
  Log P: 2.85^[a]

## CC(C)OC(=O)C(Br)C(=O)N1CCC(c2nc(C3=NOC(c4ccccc4C=O)C3)cs2)CC1 (stereo not shown) [Example I-29]
  Log P: 3.11^[a]

## C#CCOc1cccc(Cl)c1C1CC(c2csc(C3CCN(C(=O)C(Br)C(=O)OCC)CC3)n2)=NO1 (stereo not shown) [Example I-31]
  Log P: 3.20^[a]

## C#CCOc1ccccc1C1CC(c2csc(C3CCN(C(=O)C(Br)C(=O)OC(C)C)CC3)n2)=NO1 (stereo not shown) [Example I-32]
  Log P: 3.43^[a]

## C#CCOc1cccc(F)c1C1CC(c2csc(C3CCN(C(=O)C(Br)C(=O)OC(CC)CCCCC)CC3)n2)=NO1 (stereo not shown) [Example I-35]
  Log P: 4.89^[a]

## COCCOC(=O)C(Br)C(=O)N1CCC(c2nc(C3=NOC(c4ccccc4OS(C)(=O)=O)C3)cs2)CC1 (stereo not shown) [Example I-36]
  Log P: 2.53^[a]

## CC(C)OC(=O)C(Br)C(=O)N1CCC(c2nc(C3=NOC(c4ccccc4OS(C)(=O)=O)C3)cs2)CC1 (stereo not shown) [Example I-37]
  Log P: 2.99^[a]

## CCCCCC(CC)OC(=O)C(Br)C(=O)N1CCC(c2nc(C3=NOC(c4ccccc4OS(C)(=O)=O)C3)cs2)CC1 (stereo not shown) [Example I-39]
  Log P: 4.55^[a]

## C#CCOc1cccc(F)c1C1CC(c2csc(C3CCN(C(=O)CC(=O)OCCOC)CC3)n2)=NO1 (stereo not shown) [Example I-43]
  Log P: 2.43^[a]

## CCCCCC(CC)OC(=O)CC(=O)N1CCC(c2nc(C3=NOC(c4c(F)cccc4OS(C)(=O)=O)C3)cs2)CC1 (stereo not shown) [Example I-48]
  Log P: 4.03^[a]

## CCOC(=O)CC(=O)N1CCC(c2nc(C3=NOC(c4c(F)cccc4OS(C)(=O)=O)C3)cs2)CC1 (stereo not shown) [Example I-54]
  Log P: 2.29^[a]

## C#CCOc1ccccc1C1CC(c2csc(C3CCN(C(=O)CC(=O)OC(CC)CCCCC)CC3)n2)=NO1 (stereo not shown) [Example I-57]
  Log P: 4.56^[a]

## CS(=O)(=O)Oc1cccc(Cl)c1C1CC(c2csc(C3CCN(C(=O)C(Br)C(=O)OCc4ccccc4)CC3)n2)=NO1 (stereo not shown) [Example I-67]
  Log P: 3.54^[a]

## CS(=O)(=O)Oc1ccccc1C1CC(c2csc(C3CCN(C(=O)C(Br)C(=O)OCc4ccccc4)CC3)n2)=NO1 (stereo not shown) [Example I-68]
  Log P: 3.31^[a]

## C#CCOc1cccc(Cl)c1C1CC(c2csc(C3CCN(C(=O)C(Br)C(=O)OCc4ccccc4)CC3)n2)=NO1 (stereo not shown) [Example I-69]
  Log P: 3.85^[a]

## C#CCOc1ccccc1C1CC(c2csc(C3CCN(C(=O)C(Br)C(=O)OCc4ccccc4)CC3)n2)=NO1 (stereo not shown) [Example I-70]
  Log P: 3.72^[a]

## CC(C)(C)OC(=O)C(Br)C(=O)N1CCC(c2nc(C3=NOC(c4c(Cl)cccc4OS(C)(=O)=O)C3)cs2)CC1 (stereo not shown) [Example I-72]
  Log P: 3.50^[a]

## C#CCOc1ccccc1C1CC(c2csc(C3CCN(C(=O)C(Br)C(=O)OC(C)(C)C)CC3)n2)=NO1 (stereo not shown) [Example I-73]
  Log P: 3.68^[a]

## CC(C)(C)OC(=O)C(Br)C(=O)N1CCC(c2nc(C3=NOC(c4ccccc4OS(C)(=O)=O)C3)cs2)CC1 (stereo not shown) [Example I-74]
  Log P: 3.24^[a]

## CS(=O)(=O)Oc1ccccc1C1CC(c2csc(C3CCN(C(=O)CC(=O)OCc4ccccc4)CC3)n2)=NO1 (stereo not shown) [Example I-75]
  Log P: 2.89^[a]
